From patent publication US20240197869A1, “HYPERACTIVATORS OF MAMMALIAN DENDRITIC CELLS” (Corner Therapeutics, Inc., priority 2021, published 2024)

Key:
[1] = system: canine peripheral blood mononuclear cells (PBMCs); experiment: Viability of canine PBMCs (CellTiter-Glo); assay type: cell-based; conditions: lipid combined with R848, 2 days, relative to R848 alone
Method: Isolation of PBMCs from Whole Blood. PBMCs were isolated from whole blood using density gradient centrifugation with Ficoll-Paque PLUS (Cytivia). Whole blood was diluted 1:1 with PBS, layered on top of Ficoll-Paque PLUS and centrifuged at 1000×g for 30 minutes at room temperature. PBMCs were collected, washed twice in PBS, and incubated with Ack lysis buffer (Lonza) to remove any remaining red blood cells.
Cell Culture and Stimulation. […] Cells were plated at 1×10^5 (canine cells) or 1×10^6 (human cells) per well in 96-well flat bottom tissue culture plates. Lyophilized Vaccigrade R848 (Invivogen) was reconstituted and diluted according to manufacturer's recommendations and added to cells at a final concentration of 1 μg/mL.
Quantification of Cell Viability.

[2] = Particle size by Dynamic Light Scattering (DLS); assay type: physicochemical; conditions: particles of 22:0 Lyso PC and KP407 by solvent evaporation, after 0.45 um filtration
Source text: Particle size was quantified by Dynamic Light Scattering (DLS).

[3] = system: murine, FLT3L-differentiated DC; experiment: Antigen uptake and presentation assay; assay type: cell-based, mouse
Method: Antigen uptake and presentation assay. To examine antigen uptake and the endocytic ability of BMDCs, pHrodo™ Red Dextran 10,000 MW was used (ThermoFisher). Briefly, FLT3L-derived BMDCs previously cultured with media alone, or treated for 24 hours with R848 alone or in combination with 22:0 Lyso PC, were incubated with pHrodo™ Red Dextran (40 ug/ml) for 45 minutes at 37° C., or at 4° C. (as a control for surface binding of the antigen). BMDCs were then washed and stained with Live/Dead Fixable Violet dye (ThermoFisher) to distinguish living cells from dead cells. Cells were then fixed with BD fixation solution and resuspended in MACS buffer. Red (APC) fluorescence of live cells was measured by flow cytometry. Fluorescence values of BMDCs incubated at 37° C. were reported as Mean Fluorescence Intensity (MFI) of pHrodo™ Red Dextran associated cells as normalized to MFI of pHrodo™ Red Dextran associated cells incubated at 4° C. To measure the efficiency of OVA peptide presentation on MHC-I, FLT3L-BMDCs were treated as described above and incubated with Endofit-OVA protein (0.5 mg/ml) for 1 hour at 37° C. […] The percentage of cells associated with the OVA peptide on MHC-I was calculated by flow cytometry. Data were acquired on a Symphony A3 flow cytometer (Becton-Dickenson) and analyzed with FlowJo software (Becton-Dickenson). […]

[4] = system: B16-F10 mouse melanoma tumor; experiment: Therapeutic whole tumor lysate vaccine in B16F10 tumor-bearing mice; assay type: in vivo, mouse (C57BL/6J)
Method: Ex vivo whole tumor lysate preparation. Syngeneic whole tumor lysates (WTL) were prepared from tumors explants of unimmunized tumor-bearing mice. Briefly, tumors from unimmunized mice bearing a tumor 10-12 mm of size were mechanically disaggregated using gentle MACS dissociator (Miltenyi Biotec) and enzymatically digested using the tumor Dissociation Kit (Miltenyi Biotec) following the manufacturer's protocol. After digestion, tumor cell suspensions were washed with PBS and passed through 70 um and then 30 um filters. Single cell suspension was depleted of CD45+ cells using anti-CD45 TILs microbeads (Miltenyi Biotec). Tumor cells were then counted and resuspended at 1×10^7 cells/ml then lysed by 3-4 cycles of freeze-thawing. The lysed cells were further disrupted by repeatedly passing the material through an 18G, then 21G, and finally 25G needles. Lysate was filtered again through 70 um and 30 um cell strainers and stored in aliquots at −80° C. until use. WTL were used for immunotherapy at a concentration equivalent to 5.75E5 tumor cells per mouse.
Immunotherapeutic immunization and tumor challenges. For immunizations in the context of an immunotherapeutic approach, C57BL/6J were injected on the left flank with 5×10^4 B16F10 cells. […] Mice received two boost injections at 7-day intervals.
Quantification and statistical analysis. In in vivo studies, n refers to the number of animals per condition from one or two independent experiments. Statistical differences were calculated by using unpaired two-tailed Student's t test, or one-way ANOVA with Tukey post-test. Dependent samples were analyzed with paired t tests. Statistical significance for experiments with more than two groups was tested with two-way ANOVA with Tukey multiple comparison test correction. All experiments were analyzed using Prism 7 (GraphPad Software). Graphical data was shown as mean values with error bars indicating the SD or SEM. P values of <0.05 (*), <0.01 (**) or <0.001(***);%0.0001 (****) indicated significant differences between groups.

[5] = system: human monocyte-derived dendritic cells (moDCs); experiment: DAMP screen: viability of human moDCs (CellTiter-Glo)
Method: Danger-Associated Molecular Pattern (DAMP) Screen. After 6 days of differentiation into moDC, cells were collected and counted. Cells were plated at 100,000 cells/well in R10 media in 96-well flat bottom tissue culture-treated plates. LPS, serotype O55:B5 (Enzo Life Sciences) was added to a final concentration of 1 μg/mL in each well. […] Cells were incubated at 37° C., 5% CO2 for two days. Cell cultures were then used for endpoint analyses.
Endpoint Analyses. After culturing moDCs with PAMPs and DAMPs for two days, supernatant and cell samples were collected for analysis.
Quantification of Cell Viability. Cell viability was assessed by quantifying the presence of ATP as an indicator of metabolically active cells using the CellTiter-Glo Luminescent Cell Viability Assay (Promega). Metabolic activity was assessed following manufacturer's instructions. The CellTiter-Glo reagent was mixed with the cell pellets and remaining supernatant, and transferred to a white, opaque 96-well plate. Luminescence was measured on all wavelengths on a Spectramax iD3 plate reader (Molecular Devices) using an integration time of 500 ms. Percent viability was calculated relative to the control condition of moDCs treated with LPS.

[6] = WTL 80 ug + R848 100 ug + 65 ug lipid in […]% KP407, 2 boosts every 7 days

CCCCCCCCCCCCCCCCCCCCCC(=O)OC[C@@H](O)COP(=O)([O-])OCC[N+](C)(C)C [22:0 LYSO PC, 1-behenoyl-2-hydroxy-sn-glycero-3-phosphocholine]
relative cell viability (in words) [1]: remain viable
relative cell viability (in words) ([1]; listed as 22:0 LYSO): did not significantly reduce relative cell viability
particle diameter [2]: approximately 1500 nm
OVA antigen processing and cross-presentation on MHC-I (in words) ([3]; R848 + lipid): did not interfere with these functions
antigen uptake (Red pHrodo dextran) (in words) ([3]; R848 with vs without lipid, 24 h): does not compromise the antigen uptake capacity of DCs
survival of tumor-bearing mice (in words) [4, 6]: survived longer
tumor growth kinetics (in words) [4, 6]: delayed tumor growth kinetics
benefit of vaccination (in words) ([4]; tumor lysate + R848 + lipid in PBS): No significant benefit
Relative Viability (%) ± SD ([5]; 41.3 μM lipid + LPS 1 μg/mL, 2 days, relative to LPS-treated moDCs, Table 1-2): 47.6%
Relative Viability (%) ± SD ([5]; 82.5 μM lipid + LPS 1 μg/mL, 2 days, relative to LPS-treated moDCs, Table 1-1): 14.6%
Relative Viability (%) ± SD ([5]; 82.5 μM lipid + LPS, selected lipids, Table 1-3 (repeats Table 1-1)): 14.6%
